Assay results taken from article PMC6775132, “Systematic identification of metabolites controlling gene expression in E. coli” (Nature Communications, 2019).

Experiments:
Test in all cases: microscale thermophoresis, labelled His-tagged protein
Format in all cases: binding
Conditions in all cases: 50 mM NaH2PO4, 500 mM NaCl, pH 5.7, 21 °C; 50 nM protein
[1] = biological target: T1, ArgR (Escherichia coli, UniProt P0A6D0)
T1 construct: labelled through His-tag (RED-tris-NTA)
T1 sequence (P0A6D0 1-156): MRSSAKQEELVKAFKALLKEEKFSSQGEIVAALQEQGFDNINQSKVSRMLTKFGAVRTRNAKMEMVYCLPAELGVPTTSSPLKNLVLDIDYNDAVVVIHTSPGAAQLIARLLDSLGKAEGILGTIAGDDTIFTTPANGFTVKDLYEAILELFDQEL

[2] = biological target: T2, DhaR (Escherichia coli, UniProt P76016)
T2 construct: labelled through His-tag (RED-tris-NTA)
T2 sequence (P76016 1-639): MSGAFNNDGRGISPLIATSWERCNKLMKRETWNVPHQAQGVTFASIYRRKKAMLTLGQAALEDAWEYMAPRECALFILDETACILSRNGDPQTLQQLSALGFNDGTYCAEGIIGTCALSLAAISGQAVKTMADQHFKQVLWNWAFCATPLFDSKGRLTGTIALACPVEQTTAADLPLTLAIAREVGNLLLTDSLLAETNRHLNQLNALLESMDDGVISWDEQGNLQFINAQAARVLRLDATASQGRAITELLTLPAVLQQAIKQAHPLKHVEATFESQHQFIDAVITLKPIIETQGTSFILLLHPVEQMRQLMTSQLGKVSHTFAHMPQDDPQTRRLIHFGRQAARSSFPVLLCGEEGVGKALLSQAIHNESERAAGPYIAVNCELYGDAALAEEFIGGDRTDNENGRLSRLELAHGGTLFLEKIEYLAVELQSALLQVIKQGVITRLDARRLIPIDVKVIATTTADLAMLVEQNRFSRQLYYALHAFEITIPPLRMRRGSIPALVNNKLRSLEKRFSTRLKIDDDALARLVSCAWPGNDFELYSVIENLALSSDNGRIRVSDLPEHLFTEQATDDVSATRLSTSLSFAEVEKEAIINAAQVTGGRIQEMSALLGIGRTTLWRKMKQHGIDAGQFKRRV

[3] = biological target: T3, SgrR (Escherichia coli, UniProt P33595)
T3 construct: labelled through His-tag (RED-tris-NTA)
T3 sequence (P33595 1-551): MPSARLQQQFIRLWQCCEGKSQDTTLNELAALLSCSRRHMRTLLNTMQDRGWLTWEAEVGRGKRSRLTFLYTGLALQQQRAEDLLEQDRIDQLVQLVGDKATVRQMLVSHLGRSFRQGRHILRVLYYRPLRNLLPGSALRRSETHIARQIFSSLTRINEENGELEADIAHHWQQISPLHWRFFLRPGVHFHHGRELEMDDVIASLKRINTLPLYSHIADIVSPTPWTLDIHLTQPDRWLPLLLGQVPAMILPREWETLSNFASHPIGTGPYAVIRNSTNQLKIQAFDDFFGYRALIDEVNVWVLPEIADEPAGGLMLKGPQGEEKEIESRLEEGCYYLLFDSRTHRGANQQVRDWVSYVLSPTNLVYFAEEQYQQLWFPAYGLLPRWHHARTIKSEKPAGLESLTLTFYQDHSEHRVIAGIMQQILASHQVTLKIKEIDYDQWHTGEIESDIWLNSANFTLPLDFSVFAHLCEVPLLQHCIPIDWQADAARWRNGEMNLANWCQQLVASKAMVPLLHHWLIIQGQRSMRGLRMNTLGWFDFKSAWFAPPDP

[4] = biological target: T4, SoxR (Escherichia coli, UniProt P0ACS2)
T4 construct: labelled through His-tag (RED-tris-NTA)
T4 sequence (P0ACS2 1-154): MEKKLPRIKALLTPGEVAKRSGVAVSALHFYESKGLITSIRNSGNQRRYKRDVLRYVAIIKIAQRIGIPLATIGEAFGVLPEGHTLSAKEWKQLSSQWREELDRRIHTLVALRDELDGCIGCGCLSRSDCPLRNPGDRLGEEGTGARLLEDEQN

[5] = biological target: T5, TrpR (Escherichia coli, UniProt P0A881)
T5 construct: labelled through His-tag (RED-tris-NTA)

Question: How did the KD [1] turn out when `N=C(N)NCCC[C@H](N)C(=O)O` [arg, arginine] was run?
Answer: also confirmed the known arginine–ArgR and tryptophan–TrpR interactions

Question: With `O=C(CO)COP(=O)(O)O` [dhap, dihydroxyacetone phosphate] as the molecule, how does the KD [2] read?
Answer: DhaR binds the glycolysis intermediate dihydroxyacetone phosphate (DHAP)

Question: Which KD [3] does the source give for `N[C@@H](CCC(=O)O)C(=O)O` [glu, glutamate] here?
Answer: SgrR binds glutamate

Question: With `N[C@@H](Cc1c[nH]c2ccccc12)C(=O)O` [trp, tryptophan] as the molecule, how does the KD [4] read?
Answer: In vitro MST assays validated that SoxR binds tryptophan

Question: And the KD [5]?
Answer: also confirmed the known arginine–ArgR and tryptophan–TrpR interactions
